Test results as given in US12679827B2, “Pyrimidine compounds and their pharmaceutical uses” (National Health Research Institutes, priority 2020, dated 2026).

Experiments:
[1] = background statement, WO 2014/190207A1; cited from earlier work
NCI-H69 = assay: Small-cell-lung cancer cell proliferation inhibition assay (PrestoBlue), NCI-H69; format: cell-based; conditions: Homo sapiens, MYCN amplified SCLC cells, 72 hours
Experimental: (§1) Small cell lung cancer cells NCI-H82 (ATCC HTB-175, cMYC amplified), NCI-H446 (ATCC® HTB-171, cMYC amplified), and NCI-H69 (ATCC® HTB-119, MYCN amplified) were seeded at the density of 5000-10000 cells per well in 96-well plates. After 24 hours, the cancer cells were treated with each compound at various concentrations (0-10 μM) and then incubated for another 72 hours. IC50 values were computed based on duplicated 8-point titration.

NCI-H446 = assay: Small-cell-lung cancer cell proliferation inhibition assay (PrestoBlue), NCI-H446; format: cell-based; conditions: Homo sapiens, cMYC amplified SCLC cells, 72 hours
Experimental: as §1

NCI-H82 = assay: Small-cell-lung cancer cell proliferation inhibition assay (PrestoBlue), NCI-H82; format: cell-based; conditions: Homo sapiens, cMYC amplified SCLC cells, 72 hours
Experimental: as §1

[2] = system: NCI-H446 xenografted tumor; assay: Inhibition of xenografted tumor growth, NCI-H446-xenografted tumorigenicity mouse model; format: in vivo, mice; conditions: 100 mg/kg orally; for tumor regression: NCI-H446 xenograft
Experimental: The efficacies of two compounds of Formula (I), i.e., compound 71 and compound 122, in inhibiting tumor growth were determined using a NCI-H446-xenografted tumorigenicity mouse model as below.
Male athymic nu/nu nude mice (BioLASCO, Taiwan) at age 6 wk were housed in sterile cages maintained under 12-h light/dark cycles with controlled temperature and humidity. The mice were inoculated s.c. with 1×10^6 NCI-H446 cells (ATCC® HTB-171) resuspended in saline mixed with 50% Metrigel Matrix (Corning, USA). The sizes of the xenografted tumors were measured by a digital caliper (GMC-190; Goldsun Electronics Co.) and calculated using the algorithm: tumor volume (mm^3)=length×(width)^2/2. Body weight and tumor size were measured at least twice a week.

cMYC = assay: In vivo cMYC protein level reduction, NCI-H446 xenograft mouse model, Western blot; design: species or system mice; conditions: one oral dosage of 100 mg/kg; tumors harvested 2-24 hours; FIG. 3
Experimental: (§2) The efficacy of a compound of Formula (I), i.e., compound 71, in reducing the cMYC protein level and in inducing cell apoptosis was assessed using an NCI-H446 xenograft tumorigenicity mouse model as follows.
(§3) Male athymic nu/nu nude mice (BioLASCO. Taiwan) at 6-week age were housed in sterile cages maintained under 12-h light/dark cycles with controlled temperature and humidity. Mice were inoculated s.c. with 1×10^6 NCI-H446 cells resuspended in saline mixed with 50% Metrigel Matrix (Corning, USA). The sizes of the xenografted tumors were measured by a digital caliper (GMC-190; Goldsun Electronics Co.) and calculated using the algorithm: tumor volume (mm^3)=length×(width)^2/2. Body weight and tumor size were measured at least twice a week. When the xenografted NCI-H446 tumor reached a size ≥500 mm^3, the xenografted tumor-bearing nude mice were oral (PO) administered with compound 71 at one dosage of 100 mg/kg. Tumors were harvested at 2 hours, 4 hours, 8 hours, and 24 hours after the administration. Tissue lysates of the tumors were subjected for Western blot analysis. The primary antibodies used were cMYC (Cell Signaling, Cat No. 5605S), PARP-1 (Abcam, ab32378), and β-ACTIN (Sigma-Aldrich, A1978).

cleaved PARP-1 (cPARP-1) = assay: In vivo cell apoptosis induction (cleaved PARP-1), NCI-H446 xenograft mouse model, Western blot; design: species or system mice; conditions: one oral dosage of 100 mg/kg; 24 hours after administration; FIG. 3
Experimental: as §2, §3

[3] = biological target: T1, human Aurora A (amino acids 123-401) (Homo sapiens, UniProt O14965); assay: Kinase-Glo Luminescent Kinase assay, in vitro inhibition of Aurora A kinase activity; format: biochemical; conditions: recombinant GST-tagged Aurora A, 5.0 μM ATP, 37° C., 120 minutes
T1 construct: human Aurora A (amino acids 123-401) was expressed in Sf9 insect cells; GST; made in house; host or cells: Sf9 insect cells
T1 sequence (O14965 123-401): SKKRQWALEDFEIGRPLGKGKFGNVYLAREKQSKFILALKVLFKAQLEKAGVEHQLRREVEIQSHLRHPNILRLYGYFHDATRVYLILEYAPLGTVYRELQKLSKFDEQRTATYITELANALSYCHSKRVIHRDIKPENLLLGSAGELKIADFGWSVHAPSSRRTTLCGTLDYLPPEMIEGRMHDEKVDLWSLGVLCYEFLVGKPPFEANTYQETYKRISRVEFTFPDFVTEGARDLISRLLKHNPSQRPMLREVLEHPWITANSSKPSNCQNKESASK
Experimental: Recombinant glutathione S-transferase (GST)-tagged N-terminal truncated human Aurora A (amino acids 123-401) was expressed in Sf9 insect cells and then purified by glutathione affinity chromatography to afford recombinant Aurora A. Recombinant Aurora A (150 ng) was reacted with each test compound (100 nM) in 50 μL of 50 mM Tris-HCl pH 7.4, 10 mM NaCl, 10 mM MgCl2, 0.01% bovine serum albumin, 5.0 μM ATP, 1 mM dithiothreitol, 15 μM tetra(-LRRASLG) peptide at 37° C. for 120 minutes. Then, to the reaction was added 50 μL of Kinase-Glo Plus Reagent. The resulting mixture was incubated at 25° C. for 20 minutes. A 70 μL aliquot of the mixture was transferred to a black microliter plate. Luminescence was measured using a Wallac Vector 1420 multilabel counter (PerkinElmer, USA).

Row | IC50 (NCI-H69) [nM] | IC50 (NCI-H446) [nM] | IC50 (NCI-H82) [nM] | IC50 [3] [nM] | Structure (SMILES) | further results
1 | – | – | – | – | O=C(Nc1ccc(Nc2nccc(Nc3cc(C4CCCC4)[nH]n3)n2)cc1)Nc1cccc(C(F)(F)F)c1 [CD532] | in vivo efficacy [1]: weak
2 | < 1000 | < 1000 | < 1000 | – | CCC(=O)n1nc(C)cc1Nc1cc(N2CCN(CC)CC2)nc(N[C@H]2CCN(C(=O)c3ccc(Cl)cc3F)C2)n1 [Compound 71] | tumor size after treatment ([2]; 5-on-2-off, from about 250 mm^3, in 10 days, FIG. 2A): smaller than 50 mm^3; tumor size after treatment ([2]; 5-on-2-off, from larger than 750 mm^3, in 14 days, FIG. 2C): smaller than 50 mm^3; tumor regression [2]: more than 80%; xenografted tumors with reduced cMYC protein level (cMYC): more than 50%; xenografted tumors with increased amounts of cleaved PARP-1 (cell apoptosis) (cleaved PARP-1 (cPARP-1)): more than 80%
3 | < 1000 | < 1000 | < 1000 | < 100 | COC[C@H]1CCCN1c1cc(Nc2cc(C)[nH]n2)nc(NC2CCN(C(=O)c3cccc(Cl)c3F)CC2)n1 [Compound 97] | –
4 | < 1000 | < 1000 | < 1000 | < 100 | Cc1cc(Nc2cc(N3C[C@@H](C)N(C)[C@@H](C)C3)nc(NC3CCN(C(=O)c4cccc(Cl)c4F)CC3)n2)n[nH]1 [Compound 100] | –
5 | < 1000 | < 1000 | < 1000 | < 100 | Cc1cc(Nc2cc(N3C[C@@H](C)N[C@@H](C)C3)nc(NC3CCN(C(=O)c4cccc(Cl)c4F)CC3)n2)n[nH]1 [Compound 102] | –
6 | < 1000 | < 1000 | < 1000 | < 100 | Cc1cc(Nc2cc(N3CCN(C4COC4)CC3)nc(NC3CCN(C(=O)c4cccc(Cl)c4F)CC3)n2)n[nH]1 [Compound 103] | –
7 | < 1000 | < 1000 | < 1000 | < 100 | Cc1cc(Nc2cc(N3CCN(CC(F)(F)F)CC3)nc(NC3CCN(C(=O)c4cccc(Cl)c4F)CC3)n2)n[nH]1 [Compound 106] | –
8 | < 1000 | < 1000 | < 1000 | < 100 | Cc1cc(Nc2cc(N3C[C@H](C)NC[C@H]3C)nc(NC3CCN(C(=O)c4cccc(Cl)c4F)CC3)n2)n[nH]1 [Compound 107] | –
9 | < 1000 | < 1000 | < 1000 | < 100 | CCC(=O)n1nc(C)cc1Nc1cc(N2CCN(CC)CC2)nc(NC2CCN(C(=O)c3cccc(Cl)c3F)CC2)n1 [Compound 122] | tumor regression [2]: more than 80%; tumor size after treatment ([2]; from about 250 mm^3, FIG. 2B): smaller than 50 mm^3
10 | < 1000 | < 1000 | < 1000 | < 100 | CCC(=O)n1nc(Nc2cc(N3CCN(CC)CC3)nc(NC3CCN(C(=O)c4cccc(Cl)c4F)CC3)n2)cc1C [Compound 123] | –
11 | – | – | – | – | COc1cc(Nc2ncc3c(n2)-c2ccc(Cl)cc2C(c2c(F)cccc2OC)=NC3)ccc1C(=O)O [MCLN8237, reference compound] | tumor size 6 weeks after the treatment stopped ([2]; FIG. 2A): > 700 mm^3
